Here are results for one substance from article PMC10306101, “Substrate-derived Sortase A inhibitors: targeting an essential virulence factor of Gram-positive pathogenic bacteria” (Chemical Science, 2023).

In one experiment the target is T1, SrtA (Staphylococcus aureus, UniProt Q2FV99).
T1 construct: His6 (N); made in house; host or cells: E. coli BL21, pET21b plasmid
As to the kind of experiment: biochemical. More on the design: species or system S. aureus. Here is the method:
In order to screen the activity of SrtA inhibitors, a FRET-based functional assay was used which employs an internally quenched fluorescent (IQF) substrate, Abz-LPETGK(Dnp)-NH2 (Fig. S37a ^†).[5] […] 5-((C4-Nitrobenzyl)thio)-1,3,4-thiadiazol-2-amine was used as a reference inhibitor in the experiment.[42] […]
Fluorescence resonance energy transfer assay
For the FRET assay, the compound 5-((4-nitrobenzyl) thio)-1,3,4-thiadiazol-2-amine was used as a reference and prepared by dissolving 3 µL of the available stock (10 mM) in […] HEPES and 1% DMSO to afford a 300 µM stock concentration for the assay. This reference compound […]
FRET assay was performed with an internally quenched fluorogenic (IQF) substrate to determine the inhibitory activity of the synthesized peptidomimetics. The assay was performed in a 30 μl reaction mixture in HEPES buffer (50 mM HEPES, 150 mM NaCl, 5 mM CaCl2, 0.05% Tween20, pH 7.5). SrtA solution (200 nM) was preincubated with compounds (200 μM) for 15 min at 22 °C followed by the addition of the substrate solution (25 μM Abz-LPETGK(Dnp)-NH2, 5 mM H-Gly3-OH, final assay concentration) in the same buffer. The cleavage of the Abz/Dnp-substrate was quantified by an increase in the fluorescence signal.
The fluorescence signal was monitored each minute for 45 minutes and plotted to obtain the fluorescence rate as a line curve. The assay was performed in 384 well Corning NBS microplates (flat bottom, no lid, low flange, non-binding surface, non-sterile, white polystyrene).
Fluorescence intensity was measured at emission and excitation wavelengths of […] using a Spectramax iD5 plate reader (Molecular Devices, San Jose, CA, USA). Triplicate measurements were taken for each data point to ensure the reproducibility of the results. The average value of the fluorescence signal readouts was plotted against time over […] for each compound to produce a line curve using Origin. The reference compound was used in the experiment to act as a positive control. The slope of each compound curve (Sx) and the slope of the substrate (S0) were extracted using the linear fit function in Microsoft Origin 2019. The percent inhibition was calculated according to the following equation: inhibitory rate = (1 – Sx/S 0) × 100%. For IC50 values, Sx values at different concentrations were plotted against log transformed concentration values and fitted with a sigmodial fit using the DoseResp function using Origin. The bottom asymptote of the dose-response curve was fixed at 0. The data were reported as mean ± SE%. […]

For experiment [1], the system named is S. aureus strain CCUG10778. As to the kind of experiment: Growth profiling of S. aureus (absorbance at 600 nm). In kind it is cell-based. On the procedure:
To assess whether our most promising compounds have a possibility of being potential antivirulent compounds, they were tested with pathogenic S. aureus bacteria to assess the peptidomimetic inhibitors for their ability to inhibit bacterial growth. Firstly, our compounds were incubated with S. aureus bacteria in a 96-well plate in Tryptic Soy Broth (TSB) medium, while we also included the reference compound used in the single-point in vitro inhibition studies. So far, the covalent binding thiadiazol reference compound was not tested in this respect, but was one of the most promising compounds identified in an earlier screening campaign.[42] The inhibitors were added at various concentrations, ranging from 2 μg mL^−1 to 128 μg mL^−1, and the absorbance at 600 nm was measured as an indication of their optical density (OD600) and by that the bacteria's ability to propagate in liquid media. In the negative control experiments, the bacteria consistently reached an OD600 of 0.6 between 6 and 12 hours (Fig. 3). […]
For the growth profiling experiments the S. aureus strain CCUG10778 was cultured overnight in sterile TSB medium and diluted 1:100 by adding 1 μL into TSB medium in a sterilized, clear polystyrene 96-well plate to a final assay volume of 100 μL. Subsequently, peptides were added to the bacteria from filter sterilized stocks in MQ-H2O to give 2, 8, 32 and 128 μg/ml final concentrations. Then, bacteria were incubated at 37 °C for 3, 6, 12, 24, 36 or 48 hours and their absorbance was measured at 600 nm using a Varioskan Lux microplate reader (Thermo Fisher Scientific, Waltham, MA, USA). All individual samples were carried out in triplicate. […]
Then, bacteria […]
were incubated at 37 °C for 24 hours and centrifuged for 3 minutes at 3000 rpm in an Eppendorf Microstar 30r centrifuge. The supernatant was discarded and the cells were washed once with sterilized PBS and centrifuged. 100 μL PBS-T (PBS + 0.1% Triton-X) was added to the cells for 15 minutes to induce cell membrane permeabilization. After removal of the PBS-T by centrifugation, 100 μL of 5 μM Sytox Green (Invitrogen, Waltham, MA, USA) solution in PBS

T1 sequence (Q2FV99 60-206): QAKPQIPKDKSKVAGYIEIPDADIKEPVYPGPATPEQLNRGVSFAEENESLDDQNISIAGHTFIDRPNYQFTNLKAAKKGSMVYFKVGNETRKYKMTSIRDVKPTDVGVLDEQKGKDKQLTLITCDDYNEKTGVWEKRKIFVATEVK

At SrtA (200 nM SrtA, 200 μM inhibitor, HEPES buffer, mean ± SE, triplicate), H-FLPRDA-NH2 [Compound 22, FLPRDA] returned an FRET inhibition of 70.1 ± 5.7%. The IC50 at SrtA (IC50, inhibitor 1 μM to 1500 μM, corrected for molar extinction coefficient) turned out to be 185.3 ± 1.5 µM. In addition, on SrtA (read-out: FRET inhibition, 200 nM SrtA, 200 μM inhibitor, HEPES buffer, mean ± SE, triplicate), the inhibition at 200 µM stood at 70%. In experiment [1] (128 μg mL^−1, 48 hours, OD600), the “decrease in absorbance compared to the control” value turned out to be 22%. In addition, the “effect on bacterial growth (absorbance plateau, OD600)” value in experiment [1] (2 to 128 μg mL^−1, TSB medium, up to 48 hours) was “clear effect on the plateau of the absorbance”.
